Measured values from patent publication US20240383908A1, “SYNTHESIS AND APPLICATION OF PHOSPHATASE DEGRADER” (HINOVA PHARMACEUTICALS INC., priority 2021, published 2024).
Where a name gives a salt, the structure may show the parent alone.

Target: T1, SHP2 protein (Homo sapiens, UniProt Q06124)
T1 sequence (Q06124 1-593): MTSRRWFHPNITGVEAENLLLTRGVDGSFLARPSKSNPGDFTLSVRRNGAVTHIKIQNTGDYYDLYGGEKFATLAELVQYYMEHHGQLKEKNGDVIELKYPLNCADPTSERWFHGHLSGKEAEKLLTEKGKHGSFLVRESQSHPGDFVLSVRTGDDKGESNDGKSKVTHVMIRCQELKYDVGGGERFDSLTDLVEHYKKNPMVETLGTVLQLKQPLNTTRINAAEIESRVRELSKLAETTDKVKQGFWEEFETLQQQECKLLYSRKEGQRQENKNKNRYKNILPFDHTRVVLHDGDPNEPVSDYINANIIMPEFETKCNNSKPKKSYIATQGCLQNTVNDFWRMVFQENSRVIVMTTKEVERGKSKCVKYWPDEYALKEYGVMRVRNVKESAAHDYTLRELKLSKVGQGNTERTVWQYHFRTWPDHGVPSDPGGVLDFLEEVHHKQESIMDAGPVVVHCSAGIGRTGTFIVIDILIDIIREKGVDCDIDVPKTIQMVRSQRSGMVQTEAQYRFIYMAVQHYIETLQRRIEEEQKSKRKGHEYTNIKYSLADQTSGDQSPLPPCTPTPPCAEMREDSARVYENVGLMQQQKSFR
Test: Degradation activity on SHP2 protein in MIA Paca-2 cells (Western blot, DC50)
Format: cell-based
Set-up: endogenous in cells; host or cells: MIA Paca-2 cells
Conditions: read-out: Degradation activity for differenct cell lines MIA Paca-2 (DC50)
Experimental: (1) MV-411 cells were cultured in the cell culture medium, and then well-growing cells were selected and inoculated in a 12-well plate, with 1 mL/well and 1×10^6 cells/well. The plate was incubated overnight in a 5% CO2 cell incubator at 37° C.
(2) 10 mM storage solution of each drug was prepared using dimethylsulfoxide (DMSO). The stock solution was diluted gradually with DMSO before use, and then 1 μL of the compound solution was added to the cell culture well (to ensure that the DMSO concentration in the culture system was […]), so that the final drug concentration is 100 nM, 10 nM, 3 nM, 1 nM, 0.3 nM, and 0.1 nM. Two wells were set for each concentration. The plate was gently shaken and mixed. Additionally, negative control wells (containing an equal amount of DMSO) and positive control wells were included.
(3) After 24 hours of cultivation, the cells were lysed using RIPA cell lysate, and the proteins were extracted. The protein concentration was measured using a BCA assay kit. 5× concentrated protein buffer was loaded, heated at 100° C. for 5 min, and then the sample was stored at −20° C.
(4) For each well, 30 μg of protein was loaded to polyacrylamide gel for electrophoresis.
(5) The protein was transferred from polyacrylamide gel to PVDF membrane, and sealed at room temperature with 5% skimmed milk for 1 h, which was then incubated with the primary antibodies (Anti-SHP2 rabbit mAb and Anti-GAPDH rabbit mAb) at 4° C. overnight. The membrane was washed three times with TBST solution, 10 minutes for each time. After that, the membrane was incubated with the secondary antibodies (horseradish peroxidase labeled goat anti-rabbit IgG) at room temperature for 2 h, and then washed three times with TBST solution, 10 minutes for each time, followed by exposure.
(6) The images were analyzed with Image J grayscale, and the degradation ratio of protein bands in the test group was calculated, based on the negative control group (DMSO) (100%).
(7) Using the Dose-response-inhibition equation in the data processing software GraphPad Prism 8, the DC50 value was obtained (which represents the drug concentration corresponding to 50% degradation of the target protein).
Using similar methods and different cell lines, the degradation activity of the compound according to the present invention on SHP2 protein of different cell lines was tested under suitable culture conditions.

| SMILES | DC50 [nM] |
| --- | --- |
| CC1(N)CCN(c2cnc(Sc3cccc(NC(=O)[C@H]4C[C@@H]4c4ccc(N5CCN(c6ccc(C(=O)NCc7ccc8c(c7)CN(C7CCC(=O)NC7=O)C8=O)nn6)CC5)c(F)c4)c3)cn2)CC1 (stereo partly shown) [Compound 281] | > 1000 |
| CC1(N)CCN(c2cnc(Sc3cccc(NC(=O)C4CC45CCC(N4CC=C(c6ccc(C(=O)N7CCN(c8ccc9c(c8)CN(C8CCC(=O)NC8=O)C9=O)CC7)nc6)CC4)CC5)c3)cn2)CC1 (single isomer, unassigned) [Compound 323] | > 1000 |
| CC1(N)CCN(c2cnc(Sc3cccc(NC(=O)C4CCC(N5CC=C(c6ccc(C(=O)NCc7ccc8c(c7)CN(C7CCC(=O)NC7=O)C8=O)nc6)CC5)CC4)c3)cn2)CC1 (single isomer, unassigned) [Compound 301] | > 1000 |
| CC1(N)CCN(c2cnc(Sc3cccc(N4CCC(C(=O)N5CCN(c6ccc7c(c6)CN(C6CCC(=O)NC6=O)C7=O)CC5)CC4)c3)cn2)CC1 (stereo not shown) [Compound 333] | > 1000 |
| CC1(N)CCN(c2cnc(-c3cccc(NC(=O)c4ccc(N5CCC(N6CC=C(c7ccc(C(=O)NCc8ccc9c(c8)CN(C8CCC(=O)NC8=O)C9=O)nn7)CC6)CC5)cc4)c3)cn2)CC1 (stereo not shown) [Compound 407] | > 1000 |
| C[C@@H]1OCC2(CCN(c3cnc(Sc4cccc(NC(=O)CCN5CC=C(c6ccc(C(=O)NCc7ccc8c(c7)CN(C7CCC(=O)NC7=O)C8=O)nc6)C(C)(C)C5)c4)cn3)CC2)[C@@H]1N (stereo partly shown) [Compound 275] | > 1000 |

Next, values leading:

| DC50 [nM] | SMILES |
| --- | --- |
| < 100 | Cc1cc(N2CCC(N3CC=C(c4ccc(C(=O)NCc5ccc6c(c5)CN(C5CCC(=O)NC5=O)C6=O)nc4F)CC3)CC2)ccc1C(=O)Nc1cccc(Sc2cnc(N3CCC(C)(N)CC3)cn2)c1 (stereo not shown) [Compound 468] |
| < 100 | C[C@@H]1OCC2(CCN(c3cnc(Sc4cccc(NC(=O)c5ccc(N6CCC(N7CC=C(c8ccc(C(=O)NCc9ccc%10c(c9)CN(C9CCC(=O)NC9=O)C%10=O)nc8F)CC7)CC6)c(F)c5)c4)cn3)CC2)[C@@H]1N (stereo partly drawn) [Compound 483, 1′-(1-(4-((3-((5-((3S,4S)-4-amino-3-methyl-2-oxa-8-azaspiro[4.5]decan-8-yl)pyrazin-2-yl)thio)phenyl)aminoformyl)-2-fluorophenyl)piperidin-4-yl)-N-((2-(2,6-dioxopiperidin-3-yl)-1-oxoisoindol-5-yl)methyl)-2-fluoro-1′,2′,3′,6′-tetrahydro-[3,4′-bipyridine]-6-formamide hydrochloride] |
| < 100 | CC1(N)CCN(c2cnc(Sc3cccc(NC(=O)c4ccc(N5CCC(N6CCN(c7ccc(C(=O)NCc8ccc9c(c8)CN(C8CCC(=O)NC8=O)C9=O)cc7F)CC6)CC5)cc4)c3)cn2)CC1 (stereo not shown) [Compound 513] |
| < 100 | Cc1nc(C(=O)NCc2ccc3c(c2)CN(C2CCC(=O)NC2=O)C3=O)ccc1C1=CCN(C2CCN(c3ccc(C(=O)Nc4cccc(Sc5cnc(N6CCC7(CC6)CO[C@@H](C)[C@H]7N)cn5)c4)cc3F)CC2)CC1 (stereo partly drawn) [Compound 461, N-{[2-(2,6-oxohexahydropyridin-3-yl)-1-oxo-2,3-dihydro-1H-isoindol-5-yl]methyl}-5-(1-{1-[2-fluoro-4-({[3-({5-[(3S,4S)-4-amino-3-methyl-8-aza-2-oxaspiro[4.5]decan-8-yl]pyrazin-2-yl}thio)phenyl]amino}carbonyl)phenyl]hexahydropyridine-4-yl}-1,2,3,6-tetrahydropyridin-4-yl)-6-methylpyridine-2-formamide hydrochloride] |
| 100 to 1000 | CC1(N)CCN(c2cnc(Sc3cccc(NC(=O)c4ccc(N5CCC(N6CC=C(c7cnc(C(=O)NCc8ccc9c(c8)CN(C8CCC(=O)NC8=O)C9=O)c(F)c7)CC6)CC5)nc4)c3)cn2)CC1 (stereo not shown) [Compound 428] |
| < 100 | Cc1cc(N2CCC(N3CC=C(c4ccc(C(=O)NCc5ccc6c(c5)CN(C5CCC(=O)NC5=O)C6=O)nc4Cl)CC3)CC2)ccc1C(=O)Nc1cccc(Sc2cnc(N3CCC(C)(N)CC3)cn2)c1 (stereo not shown) [Compound 444] |
| < 100 | CC1(N)CCN(c2cnc(Sc3cccc(NC(=O)c4ccc(N5CCC(N6CCN(c7cnc(C(=O)NCc8ccc9c(c8)CN(C8CCC(=O)NC8=O)C9=O)cc7Cl)CC6)CC5)cc4F)c3)cn2)CC1 (stereo not shown) [Compound 497] |
